From EP0309566B1, “STLV-III-RELATED POLYPEPTIDES, DIAGNOSTIC SYSTEMS AND ASSAY METHODS” (JOHNSON AND JOHNSON, priority 1987, dated 1994) come the findings set out here.

One assay relates to antibodies against HIV-2. The assay is described as follows: ELISA with STLV-III polypeptides p80 and p81, alone and in combination. It is filed as binding, human. To be noted: two sera containing high titers of antibodies against HIV-2, diluted 1:10; 490nm. How it is done:
Preliminary studies using two sera containing high titers of antibodies against HIV-2 were performed by ELISA using each of p80 and p81 alone and in combination. One hundred microliters (ul) of 0.01M NaHCO₃, pH 9.6, containing 1 microgram (ug) of either p80 or p81 or a combination (admixture) of 1 ug of p80 and 1 ug of p81 were admixed into the wells of Immunolon II microtiter plates (Dynatech, Alexandria, VA). The plates were then maintained for about 16 hours at 4 degrees C to permit the polypeptides to adsorb onto (coat) the walls of the wells. After removing the polypeptide coating solution by shaking, 300 ul of PBS containing 1% bovine serum albumin (BSA), 5mM benzamidine, 10 kilounits Aprotinin, 10ug/ml Trypsin Inhibitor, 10mM EACA, 0.5mM PMSF, 2mM EDTA and 10% glycerol were admixed into each well to block excess protein binding sites. […]
Two hundred ul of OPD substrate were then admixed into each well to form a developing-reaction admixture. After maintaining the developing-reaction admixture for 30 minutes at about 20 degrees C, 50 ul of 4N H₂SO₄ were admixed into each well to stop the developing-reaction, and the resulting solutions were assayed for absorbance at 490nm using a microtiter plate reader.
In general terms: In an ELISA, binding on a coated surface is turned into a signal by an enzyme label.

A further assay has as its system 24 sera. The assay is described as follows: Comparison of peptide p80 based and peptide p81 based ELISA, 24 sera. In kind it is binding. The text has this: The absorbance values obtained for each of 24 sera in a peptide p80 based ELISA were divided by those obtained in a peptide p81 based ELISA. The resulting absorbance value ratios are shown in ranked order in Table 14.

The test system of assay [1] is HIV-1 antibodies. The assay is described as follows: ELISA of serum panels: E8 assay (peptide (II) as solid phase antigen, Procedure #1) compared with commercial viral lysate kits. In kind it is binding, human. The conditions noted are these: 200 normal sera; S.D. 0.017. How it is done: (§1) • (1) coat ELISA plate with peptide - 1ug/50ul/well in 0.1M NaHCO₃, pH 9; • (2) let plates dry overnight uncovered at 37°C; then wash with PBS; • (3) block plates with 300ul/well of blocking buffer (5% NCS-PBS) for 2 hrs. at 37°C; • (4) shake out blocking buffer and drain well; • (5) add 50ul/well test antiserum (first antibody) for 30 to 120 minutes at 37°C. (If the antiserum is to be diluted, use T-wash.) Dilutions of 1:2 to 1:100 have been used; • (6) shake out test antisera and wash plate six times with PBS-Tween20; • (7) add 100ul/well of labeled specific binding agent in the form of a enzyme-labeled second antibody diluted 1:4000 with T-wash. Maintain 30 to 120 minutes at 37°C; • (8) shake out any unreacted second antibody and wash plate six times with PBS-Tween20; • (9) add 100ul/well OPD substrate (or 5ul ABTS solution) for 20 minutes at RT; • (10) add 50ul/well of 4N H₂SO₄ to stop OPD reaction (or 100ul/well of 1% SDS for ABTS reaction); • (11) read plate on an MR 500 Microplate ELISA plate reader. […]
(§2) The ELISA kits described in Example 4A made with peptide (II) were evaluated against a panel of sera comprising sera from normal subjects, patients with disorders or diseases unrelated to AIDS, known AIDS patients, known ARC patients, and patients whose diagnosis is unknown but who are antibody-positive for […] antibodies by commercial tests or by Western blot assay. […]

Assay [2] deals with HIV-1 antibodies. The assay is described as above. It is filed as binding, human. On the set-up: key: +: antibody-positive; antibody-negative. The conditions noted are these: E8 absorbance cutoff 0.104. How it is done:
as §1, with “reader. (490nm for OPD or 405 nm for ABTS).” for “reader.”
as §2

Assay [3] relates to HIV-1 antibodies. The description is as above. Set-up: key: (+)=False Positives. The conditions noted are these: 6 samples; NPC/NON-AIDS. It is filed as binding, human. How it is done:
as §1, §2

The subject of a further assay is antibodies to HIV-1. Put plainly: E8 peptide competition (blocking) assay: serum mixed with peptide (II), peptide (II) as solid phase antigen. It is filed as binding, human. To be noted: last seven samples of Table 7 (antibody positive sera). How it is done:
Presented in Table 7 below are data relating to the assay of various patient sera. In addition to the usual assay with peptide (II) as described in Example 4-Procedure A, each serum was assayed against peptide (II) after mixing the serum sample with an effective blocking amount of the peptide (II). Also included in the Table are the results of assaying each sample with commercially available kits.
Furthermore, even samples incorrectly identified as positive by the E8 assay are correctly identified as negative by the E8 peptide competition assay. […] The last seven samples assayed as shown in Table 7 are positive for antibody by both the E8 assay and commercially available assays (with the exception of two false negatives using the Abbott kit) and by the more tedious and time consuming Western blot assay.

In assay [4] the test system is HIV-1 antibodies. The assay is described as follows: ELISA of serum panels: E8 assay (peptide (II) as solid phase antigen, Procedure #1) compared with commercial viral lysate kits. In kind it is binding, human. On the set-up: key: (-) = False Negatives. How it is done: as §1, with “reader. (490nm for OPD or 405 nm for ABTS).” for “reader.”
as §2

Turning to AWCAFRQVCHTTVPWPNAS [p81], the absorbance values result in the assay with antibodies against HIV-2 was “about 0.4”. For the same sequence, the absorbance value with 24 sera (Serum No. 3541) was 0.025; with 24 sera (Serum No. 3616), 0.047; with 24 sera (Serum No. 3743), 0.040; with 24 sera (Serum No. 3923), 0.067; in the assay with 24 sera (Serum No. 3942), 0.051; in the assay on 24 sera (Serum No. 5160) it was 0.236. Further, the absorbance value in the assay with 24 sera (Serum No. 5182) was 0.102; with 24 sera (Serum No. 5727), 0.563; with 24 sera (Serum No. 5740), 0.043; in the assay with 24 sera (Serum No. 6598) it was 0.205; in the assay on 24 sera (Serum No. 6599), 0.232; in the assay on 24 sera (Serum No. 6600), 0.306. Besides, the absorbance value is given as 0.138 with 24 sera (Serum No. 6601); 0.001 with 24 sera (Serum No. 6602); 0.421 in the assay with 24 sera (Serum No. 6603); 0.400 in the assay on 24 sera (Serum No. 6604); 0.285 with 24 sera (Serum No. 6631); 0.034 with 24 sera (Serum No. 6650). In addition, the absorbance value was 0.160 in the assay on 24 sera (Serum No. 6661); 0.053 in the assay with 24 sera (Serum No. 6665); 0.258 in the assay with 24 sera (Serum No. 6674); 0.489 in the assay on 24 sera (Serum No. 6683); 0.022 in the assay on 24 sera (Serum No. 6698); 0.008 with 24 sera (Serum No. 6877).

With “IWGCSGKLICTTAVP [peptide (II), solid phase antigen of the "E8" assay]”, the “Mean Absorbance of Normals” value in the assay with HIV-1 antibodies [1] was 0.016. The Assay result with HIV-1 antibodies [2] (1 sample, Normal, Sample ID 749) is “-”; in the assay on HIV-1 antibodies [2] (1 sample, Normal, Sample ID 2846) it was “+”; in the assay on HIV-1 antibodies [2] (198 samples, Diagnosis Normal) it was “-”; in the assay on HIV-1 antibodies [3] it was “(+)”; with HIV-1 antibodies [4] (1 sample, AIDS, Sample I.D. 653), “(-)”; in the assay with HIV-1 antibodies [4] (2 samples, AIDS, Sample I.D. 533,3621), “(-)”. For the same sequence, in the assay on HIV-1 antibodies [4] (2 samples, ARC, Sample I.D. 512,529), the Assay result was “(-)”. In addition, the “reactivity of sera with peptide (II) as solid phase antigen after mixing each serum with peptide (II)” value in the assay on antibodies to HIV-1 is “effectively blocked”.
